Laboratory results published in patent publication US12116573B2, “Targeting ligands for therapeutic compounds” (Arrowhead Pharmaceuticals, Inc., priority 2016, dated 2024).

Assay: Solubility of targeting ligand phosphoramidite compounds in oligonucleotide synthesis solvent (Example 5)
Format: physicochemical
Conditions: for solubility relative to Structure 103d: solvents for oligonucleotide synthesis
From the text: The compositions were solubilized in dichloromethane (DCM) and dried over sieves.

Compound	solubility relative to Structure 103d	dissolution under standard conditions (standard concentrations and solvent conditions typical for oligonucleotide synthesis)
CC(=O)NC1C(OCCOCCNC(=O)CCC(NC(=O)CCC(NC(=O)CCOCCOCCOCCOCCOCCOCCOP(OCCC#N)N(C(C)C)C(C)C)C(=O)NCCOCCOC2OC(COC(C)=O)C(OC(C)=O)C(OC(C)=O)C2NC(C)=O)C(=O)NCCOCCOC2OC(COC(C)=O)C(OC(C)=O)C(OC(C)=O)C2NC(C)=O)OC(COC(C)=O)C(OC(C)=O)C1OC(C)=O (stereo not drawn) [Structure 101d, Tri-NAG-bis-Glu-NH-PEG6 phosphoramidite]	greater solubility	–
CC(=O)NC1C(OCCOCCNC(=O)CCC(NC(=O)CCC(NC(=O)CCOCCOCCOCCOCCOCCOCCOCCOCCOP(OCCC#N)N(C(C)C)C(C)C)C(=O)NCCOCCOC2OC(COC(C)=O)C(OC(C)=O)C(OC(C)=O)C2NC(C)=O)C(=O)NCCOCCOC2OC(COC(C)=O)C(OC(C)=O)C(OC(C)=O)C2NC(C)=O)OC(COC(C)=O)C(OC(C)=O)C1OC(C)=O (stereo not drawn) [Structure 102d, Tri-NAG-bis-Glu-NH-PEG8 Phosphoramidite]	greater solubility	–
CC(=O)NC1C(OCCOCCNC(=O)CCC(NC(=O)CCC(NC(=O)CCOCCOCCOCCOCCOP(OCCC#N)C(C(C)C)C(C)C)C(=O)NCCOCCOC2OC(COC(C)=O)C(OC(C)=O)C(OC(C)=O)C2NC(C)=O)C(=O)NCCOCCOC2OC(COC(C)=O)C(OC(C)=O)C(OC(C)=O)C2NC(C)=O)OC(COC(C)=O)C(OC(C)=O)C1OC(C)=O (stereo not drawn) [Structure 103d, Tri-NAG-bis-Glu-NH-PEG4 phosphoramidite]	–	difficult to dissolve
